For the assay, the system named is HeLa cells. Briefly: Clonogenic survival assay in naive HeLa cells. The assay is classed as cell-based. As to conditions: Taxol for 48 hours, colonies after two weeks; absence of Dox (peptide on) vs presence of Dox (peptide off). As to the method:
HeLa cells were infected with a tet-regulatory retroviral vector (Tra) expressing the RGP8.5 peptide or GFP control. After infection, 2×10^5 cells were split into one well of 6-well plate and half of cells were incubated with Dox. The next day the cells were treated with different dosages of Taxol for 48 hours. Two weeks later, the surviving colonies were stained with Giemsa solution and photographed. The cells with Dox were kept in Dox throughout the experiment. This assay has been repeated with the RGP8.5 peptide several times.
RT-PCR for peptide rescue and MDR1 mRNA level assay. Peptide sequences were rescued by RT-PCR from Taxol-resistant cells and later cloned into a Tra vector (in which the peptide expression was under tetracycline control). Each peptide was re-tested in naive Hela cells by a clonogenic survival assay. For semi-quantitative PCR to measure MDR-1 mRNA level, RiboGreen RNA quantification kit (Molecular Probes) and […] of total RNA were used for reverse transcription. Oligonucleotides for amplification of MDR-1 mRNA were described previously (Chen, G. et al., (1997) J. Biol. Chem., 272, 5974-5982).
Clonogenic survival assay. Viruses carrying the rescued peptides were used to infect Hela cells as described above. After infection, 2×10^5 cells were seeded into single well of 6-well plate w/o Doxycycline (200 ng/ml) in the medium. […]

The text below walks through data of US6737240B1, “Methods of screening for a multi-drug resistance conferring peptide” (Rigel Pharmaceuticals, Inc., priority 1999, dated 2004).

As for “MGEFLIVKVVWGRMVCWV-LVVRRFVLVIVLENSLSSNQGPP [RGP8.5]”, the “survival of HeLa cells in clonogenic survival assay” value was “enhanced survival”.
